Tests used:
GST-Bcl-2 = GST-Bcl-2 (Homo sapiens, UniProt P10415); assay: TR-FRET binding assay, GST-Bcl-2 with F-Bak peptide probe; settings: for Ki: TR-FRET Binding Affinity
Procedure, shortened: (§1)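 Displacement of a fluorescein-labelled Bak peptide from the GST-tagged protein was followed by time-resolved FRET with a terbium anti-GST donor after 3 h incubation at room temperature. Inhibition constants were calculated with Wang's equation.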

GST-Bcl-XL = GST-Bcl-XL (Homo sapiens, UniProt Q07817); assay: TR-FRET binding assay, GST-Bcl-XL with F-Bak peptide probe; settings: TR-FRET Binding Affinity
Procedure, shortened: as §1

[1] = TR-FRET, Bcl-XL Ki divided by Bcl-2 Ki
[2] = GST-Bcl-XL, F-Bak peptide probe
[3] = ratio of TR-FRET Ki values, Bcl-XL over Bcl-2

Sequence of GST-Bcl-2 (P10415 whole entry): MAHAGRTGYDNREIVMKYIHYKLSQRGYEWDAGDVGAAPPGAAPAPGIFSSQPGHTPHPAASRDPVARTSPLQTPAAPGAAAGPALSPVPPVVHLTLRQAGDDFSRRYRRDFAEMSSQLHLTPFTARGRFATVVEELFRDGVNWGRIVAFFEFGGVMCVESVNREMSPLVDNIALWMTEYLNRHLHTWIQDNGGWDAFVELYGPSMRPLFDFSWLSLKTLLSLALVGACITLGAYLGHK
Sequence of GST-Bcl-XL (Q07817 whole entry): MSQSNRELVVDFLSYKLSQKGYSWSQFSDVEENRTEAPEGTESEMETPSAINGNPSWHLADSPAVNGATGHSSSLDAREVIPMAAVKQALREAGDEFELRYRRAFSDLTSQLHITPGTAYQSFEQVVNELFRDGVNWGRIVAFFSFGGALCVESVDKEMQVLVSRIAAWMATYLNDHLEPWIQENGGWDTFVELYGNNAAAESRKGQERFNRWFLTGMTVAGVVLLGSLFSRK

SMILES: CC[C@]1(O)CC[C@@H](COc2ncc(S(=O)(=O)NC(=O)c3ccc(N4CCN(CC5=C(c6ccc(Cl)cc6)CC(C)(C)CC5)CC4)cc3Oc3cccc4[nH]ncc34)cc2Cl)CC1 [Example 509, N-({5-chloro-6-[(cis-4-ethyl-4-hydroxycyclohexyl)methoxy]pyridin-3-yl}sulfonyl)-4-(4-{[2-(4-chlorophenyl)-4,4-dimethylcyclohex-1-en-1-yl]methyl}piperazin-1-yl)-2-(1H-indazol-4-yloxy)benzamide]
- Ki (GST-Bcl-2): 6.3 nM
- Binding selectivity ratio (Bcl-XL Ki/Bcl-2 Ki) (GST-Bcl-2; [1]): 36.4
- Ki (GST-Bcl-XL): 229 nM

SMILES: CC1(C)CCC(CN2CCN(c3cc(Oc4cccc5[nH]ncc45)c(C(=O)NS(=O)(=O)c4cnc(OCC5(F)CCOCC5)c(Cl)c4)cc3Cl)CC2)=C(c2ccc(Cl)cc2)C1 [Example 510, 5-chloro-N-({5-chloro-6-[(4-fluorotetrahydro-2H-pyran-4-yl)methoxy]pyridin-3-yl}sulfonyl)-4-(4-{[2-(4-chlorophenyl)-4,4-dimethylcyclohex-1-en-1-yl]methyl}piperazin-1-yl)-2-(1H-indazol-4-yloxy)benzamide]
- Ki (GST-Bcl-2): 0.674 nM
- Binding selectivity ratio (Bcl-XL Ki/Bcl-2 Ki) (GST-Bcl-2; [1]): 257.8
- Ki (GST-Bcl-XL): 174 nM

SMILES: CN(C)CCCOc1ccc(-c2ccc(Cl)cc2)c(CN2CCN(c3ccc(C(=O)NS(=O)(=O)c4ccc(NCC5CCOCC5)c(S(=O)(=O)C(F)(F)F)c4)c(Oc4ccccc4)c3)CC2)c1 [Example 119, 4-[4-({4′-chloro-4-[3-(dimethylamino)propoxy]-1,1′-biphenyl-2-yl}methyl)piperazin-1-yl]-2-phenoxy-N-({4-[(tetrahydro-2H-pyran-4-ylmethyl)amino]-3-[(trifluoromethyl)sulfonyl]phenyl}sulfonyl)benzamide]
- Ki (GST-Bcl-2; GST-Bcl-2, F-Bak peptide probe): 0.622 nM
- Ki (GST-Bcl-XL; [2]): 230 nM

SMILES: CC1(C)CCC(CN2CCN(c3ccc(C(=O)NS(=O)(=O)c4ccc(NC[C@H]5CC[C@H](C#N)CC5)c([N+](=O)[O-])c4)c(Oc4cccc5[nH]cnc45)c3)CC2)=C(c2ccc(Cl)cc2)C1 [Example 462, Trans-2-(1H-benzimidazol-4-yloxy)-4-(4-{[2-(4-chlorophenyl)-4,4-dimethylcyclohex-1-en-1-yl]methyl}piperazin-1-yl)-N-[(4-{[(4-cyanocyclohexyl)methyl]amino}-3-nitrophenyl)sulfonyl]benzamide]
- Ki (GST-Bcl-2): 0.026 nM
- Ki (GST-Bcl-XL): 18.4 nM

SMILES: CC(C)N(C)CCCNc1ccc(S(=O)(=O)NC(=O)c2ccc(N3CCN(Cc4ccccc4-c4ccc(Cl)cc4)CC3)cc2Oc2ccccc2)cc1[N+](=O)[O-] [Example 93, 4-{4-[(4′-chloro-1,1′-biphenyl-2-yl)methyl]piperazin-1-yl}-N-{[4-({3-[isopropyl(methyl)amino]propyl}amino)-3-nitrophenyl]sulfonyl}-2-phenoxybenzamide]
- Ki (GST-Bcl-2; GST-Bcl-2, F-Bak peptide probe): 0.231 nM
- Ki (GST-Bcl-XL; [2]): 13.9 nM

SMILES: CCN(C)C(=O)N1CCOC(CNc2ccc(S(=O)(=O)NC(=O)c3ccc(N4CCN(CC5=C(c6ccc(Cl)cc6)CC(C)(C)CC5)CC4)cc3Oc3cccc4[nH]ncc34)cc2[N+](=O)[O-])C1 (stereo not shown) [Example 506, 2-{[(4-{[4-(4-{[2-(4-chlorophenyl)-4,4-dimethylcyclohex-1-en-1-yl]methyl}piperazin-1-yl)-2-(1H-indazol-4-yloxy)benzoyl]sulfamoyl}-2-nitrophenyl)amino]methyl}-N-ethyl-N-methylmorpholine-4-carboxamide]
- Ki (GST-Bcl-2): < 0.01 nM
- Binding selectivity ratio (Bcl-XL Ki/Bcl-2 Ki) (GST-Bcl-2; [1]): >445.7
- Ki (GST-Bcl-XL): 4.46 nM

SMILES: O=C(NS(=O)(=O)c1ccc(NCCCN2CCCC2)c([N+](=O)[O-])c1)c1ccc(N2CCN(Cc3ccccc3-c3ccc(Cl)cc3)CC2)cc1Oc1ccccc1 [Example 91, 4-{4-[(4′-chloro-1,1′-biphenyl-2-yl)methyl]piperazin-1-yl}-N-({3-nitro-4-[(3-pyrrolidin-1-ylpropyl)amino]phenyl}sulfonyl)-2-phenoxybenzamide]
- Ki (GST-Bcl-2; GST-Bcl-2, F-Bak peptide probe): 0.193 nM
- Ki (GST-Bcl-XL; [2]): 10.2 nM

SMILES: CC1(C)CCC(CN2CCN(c3ccc(C(=O)NS(=O)(=O)c4ccc(NCC5CCOCC5)c([N+](=O)[O-])c4)c(Oc4cccc5[nH]nnc45)c3)CC2)=C(c2ccc(Cl)cc2)C1 [Example 523, 2-(1H-benzotriazol-4-yloxy)-4-(4-{[2-(4-chlorophenyl)-4,4-dimethylcyclohex-1-en-1-yl]methyl}piperazin-1-yl)-N-({3-nitro-4-[(tetrahydro-2H-pyran-4-ylmethyl)amino]phenyl}sulfonyl)benzamide]
- Ki (GST-Bcl-2): < 0.01 nM
- Binding selectivity ratio (Bcl-XL Ki/Bcl-2 Ki) (GST-Bcl-2; [1]): >4944.4
- Ki (GST-Bcl-XL): 49.4 nM

SMILES: CC1(C)CCC(CN2CCN(c3ccc(C(=O)NS(=O)(=O)c4cnc(OCC5CC5(F)F)c(Cl)c4)c(Oc4cccc5[nH]ncc45)c3)CC2)=C(c2ccc(Cl)cc2)C1 (stereo not shown) [Example 491, N-({5-chloro-6-[(2,2-difluorocyclopropyl)methoxy]pyridin-3-yl}sulfonyl)-4-(4-{[2-(4-chlorophenyl)-4,4-dimethylcyclohex-1-en-1-yl]methyl}piperazin-1-yl)-2-(1H-indazol-4-yloxy)benzamide]
- Ki (GST-Bcl-2): 0.017 nM
- Binding selectivity ratio (Bcl-XL Ki/Bcl-2 Ki) (GST-Bcl-2; [1]): 4600.5
- Ki (GST-Bcl-XL): 77.2 nM

SMILES: CC1(C)CCC(CN2CCN(c3ccc(C(=O)NS(=O)(=O)c4cnc(NCC5(F)CCOCC5)c(Cl)c4)c(Oc4cccc5[nH]ncc45)c3)CC2)=C(c2ccc(Cl)cc2)C1 [Example 413, N-[(5-chloro-6-{[(4-fluorotetrahydro-2H-pyran-4-yl)methyl]amino}pyridin-3-yl)sulfonyl]-4-(4-{[2-(4-chlorophenyl)-4,4-dimethylcyclohex-1-en-1-yl]methyl}piperazin-1-yl)-2-(1H-indazol-4-yloxy)benzamide]
- Ki (GST-Bcl-2; GST-Bcl-2, F-Bak peptide probe): 0.12 nM
- Binding selectivity ratio (Bcl-XL Ki/Bcl-2 Ki) (GST-Bcl-2; [3]): 803.8
- Ki (GST-Bcl-XL; [2]): 96.8 nM

SMILES: CC1(C)CCC(CN2CCN(c3ccc(C(=O)NS(=O)(=O)c4ccc(NC5(CO)CCOCC5)c([N+](=O)[O-])c4)c(Oc4cccc5[nH]ccc45)c3)CC2)=C(c2ccc(Cl)cc2)C1 [Example 241, 4-(4-{[2-(4-chlorophenyl)-4,4-dimethylcyclohex-1-en-1-yl]methyl}piperazin-1-yl)-N-[(4-{[4-(hydroxymethyl)tetrahydro-2H-pyran-4-yl]amino}-3-nitrophenyl)sulfonyl]-2-(1H-indol-4-yloxy)benzamide]
- Ki (GST-Bcl-2; GST-Bcl-2, F-Bak peptide probe): 6.09 nM
- Ki (GST-Bcl-XL; [2]): > 660 nM

SMILES: CC1(C)CCC(CN2CCN(c3ccc(C(=O)NS(=O)(=O)c4ccc(OCC5(F)CCOCC5)c(Cl)c4)c(Oc4cccc5[nH]ncc45)c3)CC2)=C(c2ccc(Cl)cc2)C1 [Example 464, N-({3-chloro-4-[(4-fluorotetrahydro-2H-pyran-4-yl)methoxy]phenyl}sulfonyl)-4-(4-{[2-(4-chlorophenyl)-4,4-dimethylcyclohex-1-en-1-yl]methyl}piperazin-1-yl)-2-(1H-indazol-4-yloxy)benzamide]
- Ki (GST-Bcl-2): 0.081 nM
- Binding selectivity ratio (Bcl-XL Ki/Bcl-2 Ki) (GST-Bcl-2; [1]): 6431.8
- Ki (GST-Bcl-XL): 521 nM

SMILES: CC1(C)CC(c2ccc(Cl)cc2)=C(CN2CCN(c3ccc(C(=O)NS(=O)(=O)c4cnc(OCC5(F)CCOCC5)c(Cl)c4)c(Oc4cccc5[nH]ncc45)c3)CC2)CO1 [Example 465, N-({5-chloro-6-[(4-fluorotetrahydro-2H-pyran-4-yl)methoxy]pyridin-3-yl}sulfonyl)-4-(4-{[4-(4-chlorophenyl)-6,6-dimethyl-5,6-dihydro-2H-pyran-3-yl]methyl}piperazin-1-yl)-2-(1H-indazol-4-yloxy)benzamide]
- Ki (GST-Bcl-2): 0.025 nM
- Binding selectivity ratio (Bcl-XL Ki/Bcl-2 Ki) (GST-Bcl-2; [1]): 1472.4
- Ki (GST-Bcl-XL): 37.2 nM

SMILES: CN(C)CCCNc1ccc(S(=O)(=O)NC(=O)c2ccc(N3CCN(Cc4ccccc4-c4ccc(Cl)cc4)CC3)cc2Oc2ccc3cc[nH]c3c2)cc1[N+](=O)[O-] [Example 47, 4-{4-[(4′-chloro-1,1′-biphenyl-2-yl)methyl]piperazin-1-yl}-N-[(4-{[3-(dimethylamino)propyl]amino}-3-nitrophenyl)sulfonyl]-2-(1H-indol-6-yloxy)benzamide]
- Ki (GST-Bcl-2; GST-Bcl-2, F-Bak peptide probe): 6.63 nM
- Ki (GST-Bcl-XL; [2]): 104 nM

SMILES: O=C(NS(=O)(=O)c1ccc(NCCn2ccnn2)c([N+](=O)[O-])c1)c1ccc(N2CCN(Cc3ccccc3-c3ccc(Cl)cc3)CC2)cc1Oc1ccccc1 [Example 164, 4-{4-[(4′-chloro-1,1′-biphenyl-2-yl)methyl]piperazin-1-yl}-N-[(3-nitro-4-{[2-(1H-1,2,3-triazol-1-yl)ethyl]amino}phenyl)sulfonyl]-2-phenoxybenzamide]
- Ki (GST-Bcl-2; GST-Bcl-2, F-Bak peptide probe): 0.963 nM
- Ki (GST-Bcl-XL; [2]): 138 nM

SMILES: O=C(NS(=O)(=O)c1ccc(-n2ncc([N+](=O)[O-])n2)cc1)c1ccc(N2CCN(Cc3ccccc3-c3ccc(Cl)cc3)CC2)cc1Oc1ccccc1 [Example 31, 4-{4-[(4′-chloro-1,1′-biphenyl-2-yl)methyl]piperazin-1-yl}-N-{[4-(4-nitro-2H-1,2,3-triazol-2-yl)phenyl]sulfonyl}-2-phenoxybenzamide]
- Ki (GST-Bcl-2; GST-Bcl-2, F-Bak peptide probe): 36.6 nM
- Ki (GST-Bcl-XL; [2]): > 660 nM

SMILES: CC1(C)CCC(CN2CCN(c3ccc(C(=O)NS(=O)(=O)c4ccc(NC5CCN(C6CCOCC6)CC5)c([N+](=O)[O-])c4)c(Oc4cccc5[nH]cnc45)c3)CC2)=C(c2ccc(Cl)cc2)C1 [Example 417, 2-(1H-benzimidazol-4-yloxy)-4-(4-{[2-(4-chlorophenyl)-4,4-dimethylcyclohex-1-en-1-yl]methyl}piperazin-1-yl)-N-({3-nitro-4-[(1-tetrahydro-2H-pyran-4-ylpiperidin-4-yl)amino]phenyl}sulfonyl)benzamide]
- Ki (GST-Bcl-2; GST-Bcl-2, F-Bak peptide probe): 0.046 nM
- Binding selectivity ratio (Bcl-XL Ki/Bcl-2 Ki) (GST-Bcl-2; [3]): 87.1
- Ki (GST-Bcl-XL; [2]): 3.99 nM

SMILES: CC1(C)CCC(CN2CCN(c3ccc(C(=O)NS(=O)(=O)c4cnc(OC[C@@H]5C[C@H]6C[C@@H]5C[C@@]6(C)O)c(Cl)c4)c(Oc4cccc5[nH]ncc45)c3)CC2)=C(c2ccc(Cl)cc2)C1 [Example 520, N-[(5-chloro-6-{[(1R,2R,4R,5R)-5-hydroxy-5-methylbicyclo[2.2.1]hept-2-yl]methoxy}pyridin-3-yl)sulfonyl]-4-(4-{[2-(4-chlorophenyl)-4,4-dimethylcyclohex-1-en-1-yl]methyl}piperazin-1-yl)-2-(1H-indazol-4-yloxy)benzamide]
- Ki (GST-Bcl-2): < 0.01 nM
- Binding selectivity ratio (Bcl-XL Ki/Bcl-2 Ki) (GST-Bcl-2; [1]): >1537.8
- Ki (GST-Bcl-XL): 15.4 nM
